The values that follow come from article PMC10301393 (Viruses, 2023).

For data set [1], the system named is SARS-CoV-2. The arrangement: method as in earlier work. As to conditions: cited from earlier work.
Data set [2] concerns human coronavirus 229E (HCoV 229E). The data set is described as follows: Anti-HCoV 229E assay: reduction in viral titer. The note with it: MRC-5 cells, compound at 3 μg/mL, 72 h, Figure 3 (n = 1). The class given is cell-based, human coronavirus 229E in MRC-5 human lung fibroblast.
The subject of data set [3] is MRC-5 cells. The data set is described as follows: Cell morphology in photonic microscope observation. As to conditions: antiviral assay. It counts as cell-based, human.
Data set [4] concerns human coronavirus 229E (HCoV 229E). The data set is described as follows: Anti-HCoV 229E assay: reduction in virus-induced cytopathogenic effect. The class given is cell-based, human coronavirus 229E in MRC-5 human lung fibroblast. As to conditions: MRC-5 cells, compound at 3 μg/mL (16: 6.7 μM), MOIs 0.01–0.001, 72 h, Figure 4 (n = 3).
Data set [5] has as its system SARS-CoV. The note with it: Vero E6 cells; cited from earlier work.
Data set [6] deals with SARS-CoV 3CL protease (3CLpro). The note with it: cited from earlier work.

The structures appear in SMILES notation. Values after ≈ are worked out from the molar mass of the structure shown.

As for `Cc1coc2c1C(=O)C(=O)c1c-2ccc2c1CCCC2(C)C` [tanshinone IIA], the “IC50 (anti-SARS-CoV-2 activity)” value in data set [1] was 4.08 µg/mL (≈ 13.9 µM).
On to `CC(C)c1cc2c(cc1O)[C@@]1(C)CCC[C@@](C)(CO)[C@@H]1CC2` [Compound 12], for which the “reduction in the viral titer” value in data set [2] is approximately 0.5 log.
For `CC(C)c1cc2c(cc1O)[C@@]1(C)CCC[C@@](C)(CN3C(=O)c4ccccc4C3=O)[C@@H]1CC2` [Compound 3, 18-(phthalimid-2-yl) ferruginol], the “reduction in the viral titer” value in data set [2] is recorded as “important reductions in the viral titer”. Further, in data set [3], the “modification of the cell morphology” value was “induced modification of the cell morphology”.
Turning to `C=C(CO)c1ccc2c(c1)CC[C@H]1[C@@](C)(C(=O)O)CCC[C@]21C` [Compound 7, jiadifenoic acid C, reference compound], the “reduction in the viral-induced cytopathogenic effect (CPE)” value in data set [4] is on record as “no activity”.
Take `CC(C)c1cc2c(cc1O)[C@@]1(C)CCC[C@@](C)(CN)[C@@H]1CC2` [Compound 14, 12-hydroxydehydroabietylamine]: the “reduction in the viral-induced cytopathogenic effect (CPE)” value in data set [4] is on record as “reduce the cytopathogenic effect”.
What is called EC50 is the concentration at which the effect is half-maximal. Take `CC(=O)Oc1cc2c(cc1C(C)C)C=C[C@H]1C(C)(C)[C@@H](OC(C)=O)CC[C@]21C` [Compound 2, 3β,12-diacetoxyabieta-6,8,11,13-tetraene, reference compound]: the EC50 in data set [5] was 1570 nM.
In general, IC50 refers to the concentration at which inhibition is half-maximal. For `CC(C)c1cc2c(cc1O)[C@@]1(C)CCCC(C)(C)[C@@H]1CC2` [Compound 1, (+)-ferruginol], the EC50 in data set [5] is 1390 nM. In data set [6] (below 100 μM), the “inhibition for SARS-CoV 3CL protease” value is listed as “did not show inhibition”. Besides, in data set [6], the 50% inhibitory concentration (IC50) is 49600 nM.
`CC(C)c1cc2c(cc1O)[C@@]1(C)CCC[C@@](C)(CN3C(=O)c4ccc(F)cc4C3=O)[C@@H]1CC2` [Compound 16, 12-Hydroxy-N,N-(4-fluorophthaloyl)dehydroabietylamine]: in data set [2], the “reduction in the viral titer” value is listed as “approximately 2 log”.
Consider `CC(C)c1cc2c(cc1O)[C@@]1(C)CCC[C@@](C)(CN3C(=O)c4cccc(F)c4C3=O)[C@@H]1CC2` [Compound 15, 12-Hydroxy-N,N-(3-fluorophthaloyl)dehydroabietylamine], for which, in data set [3], the “modification of the cell morphology” value is on record as “induced modification of the cell morphology”.
